Reference: ChEMBL document CHEMBL1137898, “Benzopyranones with retro-amide side chains as (inhibitory) beta-lactamase substrates” (Bioorg Med Chem Lett, 2004)

How the values were obtained:
[1] = target: Beta-lactamase (Staphylococcus aureus) (UniProt P00807); test: Steady state kinetic as limiting rate of Staphylococcus aureus PC1 Beta-lactamase hydrolysis
[2] = target: Beta-lactamase TEM (Escherichia coli) (UniProt P62593); test: Steady state kinetic as limiting rate of TEM-2 beta-lactamase hydrolysis
Sequence of Beta-lactamase TEM (Escherichia coli) (P62593 whole entry): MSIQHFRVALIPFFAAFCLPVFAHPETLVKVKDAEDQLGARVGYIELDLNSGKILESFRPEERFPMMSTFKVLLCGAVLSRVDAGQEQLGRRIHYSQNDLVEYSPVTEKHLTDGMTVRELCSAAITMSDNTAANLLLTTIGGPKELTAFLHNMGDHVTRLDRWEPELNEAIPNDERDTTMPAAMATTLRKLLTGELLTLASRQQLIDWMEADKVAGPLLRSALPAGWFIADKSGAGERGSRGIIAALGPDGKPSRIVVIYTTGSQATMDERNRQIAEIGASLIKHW

[3] = target: Beta-lactamase (Enterobacter cloacae) (UniProt P05364); test: Steady state kinetic as limiting rate of Enterobacter cloacae P99 Beta-lactamase catalyzed hydrolysis
Sequence of Beta-lactamase (Enterobacter cloacae) (P05364 21-381 limits assumed): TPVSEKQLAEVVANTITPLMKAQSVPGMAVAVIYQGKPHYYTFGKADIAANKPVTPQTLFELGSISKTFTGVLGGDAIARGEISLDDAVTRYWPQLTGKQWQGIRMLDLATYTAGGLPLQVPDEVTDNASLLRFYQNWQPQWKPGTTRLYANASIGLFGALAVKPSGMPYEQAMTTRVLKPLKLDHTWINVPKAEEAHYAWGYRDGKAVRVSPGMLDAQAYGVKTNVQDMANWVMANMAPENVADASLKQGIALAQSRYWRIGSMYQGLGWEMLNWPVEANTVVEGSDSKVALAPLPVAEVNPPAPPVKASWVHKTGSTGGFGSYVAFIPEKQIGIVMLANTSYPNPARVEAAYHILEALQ

[4] = target: Beta-lactamase OXA-1 (Escherichia coli) (UniProt P13661); test: Steady state kinetic as limiting rate of OXA-1 beta-lactamase hydrolysis
Sequence of Beta-lactamase OXA-1 (Escherichia coli) (P13661 whole entry): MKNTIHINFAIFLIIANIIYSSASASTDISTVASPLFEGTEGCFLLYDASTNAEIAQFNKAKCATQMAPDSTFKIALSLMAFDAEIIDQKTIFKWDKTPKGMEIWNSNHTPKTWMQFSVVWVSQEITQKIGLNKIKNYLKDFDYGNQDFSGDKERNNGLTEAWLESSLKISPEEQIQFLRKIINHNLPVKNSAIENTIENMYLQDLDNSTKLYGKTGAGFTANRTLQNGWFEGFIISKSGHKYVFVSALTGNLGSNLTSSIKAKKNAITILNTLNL

[5] = target: D-alanyl-D-alanine carboxypeptidase (Streptomyces sp. R61) (UniProt P15555); test: Second order rate constant for inactivation of Streptomyces R61 D-alanyl-D-alanine carboxypeptidase; conditions: Streptomyces spp.
Sequence of D-alanyl-D-alanine carboxypeptidase (Streptomyces sp. R61) (P15555 whole entry): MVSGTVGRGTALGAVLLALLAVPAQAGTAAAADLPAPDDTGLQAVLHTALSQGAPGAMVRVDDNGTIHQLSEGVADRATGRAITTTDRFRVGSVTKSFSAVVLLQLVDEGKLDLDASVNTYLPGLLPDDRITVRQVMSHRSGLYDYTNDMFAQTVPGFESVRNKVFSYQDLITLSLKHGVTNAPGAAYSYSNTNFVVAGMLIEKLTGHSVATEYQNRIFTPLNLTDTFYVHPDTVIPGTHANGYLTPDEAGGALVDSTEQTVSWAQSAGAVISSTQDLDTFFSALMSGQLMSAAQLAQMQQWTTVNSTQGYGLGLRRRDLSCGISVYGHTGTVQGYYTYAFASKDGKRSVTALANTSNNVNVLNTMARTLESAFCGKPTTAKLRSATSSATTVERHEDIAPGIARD

Row | K cat [1] [s⁻¹] | K cat [2] [s⁻¹] | K cat [3] [s⁻¹] | K cat [4] [s⁻¹] | K [5] | Structure (SMILES)
1 | > 0.005 | > 0.02 | 1.18 |  |  | O=C(O)c1ccc2c(c1)OC(=O)C(C(=O)NCc1ccccc1)C2 (stereo not given)
2 | 0.001 | 120 | 200 | 1.2 |  | CC(=O)OCC1=C(C(=O)O)N2C(=O)[C@@H](NC(=O)Cc3cccs3)[C@H]2SC1
3 | 0.0047 | 2.07 | 5.4 | 1.2 | 1.5 1/sM | O=C(Cc1ccccc1)NC1Cc2cccc(C(=O)O)c2OC1=O (stereo not given)
4 | 0.01 | 25.5 | 0.44 | 0.25 | 22 1/sM | O=C(O)c1cccc2c1OC(=O)C(C(=O)NCc1ccccc1)C2 (stereo not given)
5 | 0.02 | > 1 | 5.6 |  |  | O=C(Cc1ccccc1)NC1Cc2ccc(C(=O)O)cc2OC1=O (stereo not given)
